Assay results taken from patent publication US20160115540A1, “PRODRUGS AND DRUGS” (Biogen MA Inc., priority 2013, published 2016).
“Also recorded” adds a separate entry of the source. Structures can show the parent of a compound that is named as a salt.

Tested on: NK cells
Experiment: Flow cytometry of NK cell surface markers (MFI) in naïve mice
Assay type: in vivo, C57Bl/6 mice
Conditions: 12 hr after 100 mpk PO
Source text: Protein expression is quantified by mean fluorescent intensity (MFI).
12-hours post-dose, mice were sacrificed and blood, spleen, and inguinal lymph node were collected for analysis by flow cytometry.
Transcriptional differences in NK cell markers were confirmed at the protein level by flow cytometry. […] Protein expression was quantified by mean fluorescent intensity (MFI). […] 12-hours post-dose, mice were sacrificed and blood, spleen, and inguinal lymph node (iLN) were collected for analysis by flow cytometry.

COC(=O)/C=C/C(=O)OC [DMF, dimethyl fumarate]
Klrb1b (NK1.1) protein expression change, MFI difference compared to MMF 12 hr or vehicle control (NK cells): differentially expressed; also recorded: Significant | Klrc1 (Nkg2a) protein expression change, MFI difference compared to MMF 12 hr or vehicle control (NK cells): differentially expressed; also recorded: Significant | Klrd1 (CD94) protein expression change, MFI difference compared to MMF 12 hr or vehicle control (NK cells): differentially expressed | Klrk1 (NKG2d) protein expression change, MFI difference compared to MMF 12 hr or vehicle control (NK cells): differentially expressed; also recorded: Significant | Ncr1 (NKp46) protein expression change, MFI difference compared to MMF 12 hr or vehicle control (NK cells): Not significant | Effects on NK cells in the spleen (naïve mice): exerts effects on NK cells in the spleen
